Experimental data from ChEMBL document CHEMBL1139180, “Design, synthesis, and bioactivity of novel inhibitors of E. coli aspartate transcarbamoylase” (Bioorg Med Chem Lett, 2007).

Test: Inhibition of Escherichia coli ATCase

IC50 [µM] | SMILES
0.055 | O=C(O)C[C@H](NC(=O)CP(=O)(O)O)C(=O)O [PALA]
42 | CC(O)C(NC(=O)CP(=O)(O)O)C(=O)O (stereo not given)
63 | O=C(CP(=O)(O)O)NC(Cc1ccc(O)cc1)C(=O)O (stereo not given)
0.087 | NC(=O)C(CC(=O)O)NC(=O)CP(=O)(O)O (stereo not given)
3.9 | O=C(CP(=O)(O)O)NC(CCO)C(=O)O (stereo not given)
43.5 | O=C(CP(=O)(O)O)NC(C(=O)O)C(=O)O
0.225 | NC(=O)CC(NC(=O)CP(=O)(O)O)C(=O)O (stereo not given)

SMILES | IC50 [µM]
O=C(CP(=O)(O)O)NC(CO)CO | 12500
O=C(CP(=O)(O)O)NC(CO)C(=O)O (stereo not given) | 30
O=C(CP(=O)(O)O)NC(CO)CCO (stereo not given) | 2900
